Holding throughout (type): cell-based, Human
Assay [1] concerns MCF7 cells. As to the kind of experiment: DAPI staining (viable cells in suspension; binucleated cells). The protocol:
The second chart in FIG. 10B sets forth the results. […] One possible explanation to that observed behavior is that they are becoming more quiescent. […] Such phenomenon is typical of anti-mitotic drugs.
The surviving fraction after 2 days and 5 days of growth was analyzed by FACS. MCF7 cells were either trypsinised or spun down and trypsinised and incubated with CD24 (IOTest CD24-PE, Beckman Coulter) and CD44 (APC mouse anti-human CD44, 559942, BD Pharmingen) for 15 minutes on ice. Cells were then rinsed twice in PBS, spun down, and resuspended with DAPI dye (D1306, Molecular probes) at 3 μM in PBS for 10 minutes. Samples were then analyzed by FACS (Fortessa, BD Bioscence). Only the live cell population, identified using the DAPI staining, was analyzed for CD24/CD44 expression. Data were analyzed using FlowJo software.

The test system of assay [2] is MCF7 cells. The assay is described as follows: Label-free quantitative proteomics. The note with it: MCF7, 10 μM. The text has this: Following protein digestion with trypsin, peptide fractions were processed on an LTQ-Orbitrap XL mass spectrometer. Those peptides identified were further analyzed to find proteomic changes between mDIVI-1-treated and vehicle-treated MCF7 cells, as described before. […] First, the inventors searched the proteomics datasets for changes in proteins involved in metabolism. […] That may possibly translate into a loss of antioxidant power, as the pentose phosphate pathway is a major source of NADPH.
LABEL-FREE SEMI-QUANTITATIVE PROTEOMICS: Chemicals and sample preparation. Formic acid, trifluoroacetic acid, ammonium formate (10 M), ammonium bicarbonate TCEP (Tris (2-carboxyethyl)phosphine hydrochloride), MMTS (Methyl methanethiosulfonate) and trypsin were all obtained from Sigma. HPLC gradient grade acetonitrile was obtained from Fisher Scientific. Briefly, 2×10^6 MCF7 cells were seeded in 15 cm plates until cells were attached. […] As control, vehicle-treated cells were processed in parallel. After 48 hours of treatment, cells were lysed in RIPA buffer (R0278, Sigma) and kept at 4° C. for 20 minutes with rotation. Lysates were cleared by centrifugation for 10 minutes at 10,000×g and supernatants were collected and kept frozen at −80° C.
PROTEIN DIGESTION: Lysate samples were thawed to room temperature and their concentrations equalized to 1 μg/μL (50 μL volume) with RIPA buffer, and further processed for trypsin digestion by sequential reduction of disulphide bonds with TCEP and alkylation with MMTS. Briefly, 1 μL benzonase (Novagen) was added to the 50 μL aliquot and placed on ice for 15 minutes. The sample was then taken to dryness using a SpeedVac, and resuspended in 22.5 μL trypsin reaction buffer (40 mM ammonium bicarbonate and 9% acetonitrile). One μL of 50 mM TCEP solution was added to each sample, mixed briefly and placed on a heater block at 60° C. for 60 minutes. After cooling to room temperature, 0.5 μL of 200 mM MMTS solution was added to each sample and allowed to react for 15 minutes. Trypsin was added in two waves to ensure efficient digestion of the sample. Firstly, 20 μg of sequencing grade trypsin was resuspended in 1800 μL of trypsin reaction buffer; 225 μL of this solution were added to each sample for digestion, and the reactions were left at 37° C. overnight with shaking (600 rpm). The following morning, a further aliquot of trypsin was added. Two ml of trypsin reaction buffer was added to 20 μL of sequencing grade trypsin; 250 μL of this solution were added to each of the digest samples from overnight, and the reactions were left at 37° C. for 4 hours with shaking (600 rpm). Thirty-five μL 10% formic acid were added to the 500 μL digest sample (0.7% final concentration of formic acid) to stop the digestion. The digested solution was diluted in 7.5 mL of acetonitrile containing 0.3% formic acid.
HILIC solid phase extraction (SPE) of peptides. PolyhydroxyethylA SPE 12 μm, 300 A, 300 mg cartridges (obtained from PolyLC) were used for the HILIC procedure. Prior to use, cartridges required an overnight soak in 50 mM formic acid followed by rinsing with water the following day. Cartridges were preconditioned with 2 mL of Buffer A (90% acetonitrile, 5 mM ammonium formate, pH 2.7) followed by 2 mL of Buffer B (5 mM ammonium formate, pH 2.7) and finally re-equilibrated with 10 mL Buffer A. The diluted samples were loaded onto the cartridges and washed with a further 10 mL Buffer A. Finally, peptides were eluted in 1 mL Buffer C (9 parts Buffer B plus 1 part Buffer A) and the samples dried on a Speedvac to remove organic solvent prior to LC-MS/MS analysis.
LC-MS/MS analysis. Lyophilised digests were resuspended in 50 μL of 0.1% TFA to give an approximate concentration of 1 μg/μL. One μL injection volumes were used throughout resulting in an on-column peptide loading of approximately 1 μg per injection. Analysis was performed in quintuplicate for each sample. […]

In assay [3] the test system is MCF7 cells. The assay is described as follows: Scratch assay (wound closure, migration). The note with it: 48 hours, vs vehicle. An excerpt:
It is though that CSCs are responsible for metastatic spread and growth. Emerging evidence highlights the role of mitochondrial dynamics in tumor cell dissemination. […] In migrating cancer cells mitochondria accumulate at the leading edge where processes requiring high energy occur, such as formation of focal adhesions. Fission seems to be a prerequisite for that efficient relocation of mitochondria. Indeed, upregulation/activation of DRP1 is associated with a migratory and invasive phenotype in cancer. […] Through a scratch assay, were cells were cultured in the presence of either vehicle or mDIVI-1. The scratch was monitored over time and the percentage of wound closure was measured as described previously.
SCRATCH ASSAY: A hundred thousand MCF7 cells per well were seeded in 12-well plates. When cells were attached, a horizontal scratch was performed using the tip of a pipette. Immediately after, the media was removed and either fresh vehicle-containing media or mDIVI-1-containing media were added to the cells for 48 hours. Four replicates were used for each condition. […] The wound closure was monitored by taking pictures of each well every 4 hours. At the end of the treatment, pictures of the wells at 0 and 48 hours were analysed using ImageJ software to calculate wound closure according to the following formula: Percentage wound closure=[(wound area0 h−wound area48 h)/wound area0 h]×100.

For `COc1cc(-n2c(S)nc3ccccc3c2=O)c(Cl)cc1Cl` [mDIVI-1, 3-(2,4-Dichloro-5-methoxyphenyl)-2-sulfanyl-4(3H)-quinazolinone], in assay [1] (50 μM, data not shown), the “binucleated cells (failure of cytokinesis)” value was “increase”. Besides, the “cell viability (DAPI) vs vehicle-treated cells” value in assay [1] (anchorage-independent conditions) is recorded as “no significant differences”. In addition, the “Change in expression: Hexokinase 1 (HK1)” value in assay [2] (Glycolysis, 48 hours) is given as “↓Infinite”. Moreover, in assay [2] (48 hours vs vehicle), the “BMP7 expression change (proteomics)” value is on record as −47.17, the “CELSR2 expression change (proteomics)” value was −1.6, the “EPCAM expression change (proteomics)” value is on record as −1.58 and the “EphA2 expression change (proteomics)” value was −1.74. Moreover, in assay [2] (48 hours vs vehicle), the “F11 receptor expression change (proteomics)” value is −1.70; the “LAMP1 expression change, upregulated (proteomics)” value is 2.83; the “STAT3 expression change (proteomics)” value was −1.83; the “ZO-1 expression change (proteomics)” value is recorded as −1.62. Also, in assay [2] (48 hours vs vehicle), the “collagen type IV upregulation (proteomics)” value came to 1.9 fold, the “desmoplakin expression change (proteomics)” value was −4.58, the “junction plakoglobin expression change (proteomics)” value is recorded as −1.65 and the “keratin 8 expression change (proteomics)” value was −5.24. Further, the “keratin 18 expression change (proteomics)” value in assay [2] (48 hours vs vehicle) is listed as −12.21. Further, in assay [3] (10 μM), the “reduction of percentage of wound closure” value is reported as 14%. Moreover, the “reduction of percentage of wound closure” value in assay [3] (50 μM) is on record as 44%.

Values taken from patent US11559527B2 (priority 2017, dated 2023).
